The conditions of test [1]: cited from earlier work.
Test [2] deals with T1, EcR-Usp complexes (Drosophila melanogaster, UniProt P34021).
T1 construct: An immunoreactive polypeptide corresponding to the full EcR (100 kDa) was detected; ubiquitin (N, cleaved yes); made in house; host or cells: Saccharomyces cerevisiae strain BJ2168 (plasmids YEpEcR and YEpcUSP); unpurified cytosolic extract
T1 sequence (P34021 1-878): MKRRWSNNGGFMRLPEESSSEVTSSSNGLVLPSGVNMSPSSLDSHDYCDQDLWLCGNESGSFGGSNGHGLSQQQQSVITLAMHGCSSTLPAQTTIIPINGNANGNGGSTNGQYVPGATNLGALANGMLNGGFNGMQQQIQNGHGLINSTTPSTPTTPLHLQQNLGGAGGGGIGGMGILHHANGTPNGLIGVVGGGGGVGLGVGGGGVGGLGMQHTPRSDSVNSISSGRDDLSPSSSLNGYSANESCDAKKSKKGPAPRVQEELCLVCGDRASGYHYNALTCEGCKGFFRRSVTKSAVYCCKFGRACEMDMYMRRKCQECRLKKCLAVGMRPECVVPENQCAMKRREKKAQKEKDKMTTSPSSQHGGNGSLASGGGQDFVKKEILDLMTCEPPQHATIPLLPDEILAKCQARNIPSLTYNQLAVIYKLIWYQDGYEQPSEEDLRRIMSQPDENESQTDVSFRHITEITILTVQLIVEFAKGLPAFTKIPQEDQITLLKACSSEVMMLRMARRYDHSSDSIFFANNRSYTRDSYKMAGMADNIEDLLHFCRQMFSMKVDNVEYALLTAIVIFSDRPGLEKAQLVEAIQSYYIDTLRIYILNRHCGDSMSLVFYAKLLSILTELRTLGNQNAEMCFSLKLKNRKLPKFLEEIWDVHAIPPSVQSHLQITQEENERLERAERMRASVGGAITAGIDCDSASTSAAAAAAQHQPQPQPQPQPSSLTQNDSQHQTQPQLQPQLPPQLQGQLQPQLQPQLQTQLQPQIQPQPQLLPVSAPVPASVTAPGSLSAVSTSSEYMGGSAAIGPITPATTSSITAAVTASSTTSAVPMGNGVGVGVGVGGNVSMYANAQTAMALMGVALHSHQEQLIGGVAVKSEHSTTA
T1 sequence (P20153 1-508 partner): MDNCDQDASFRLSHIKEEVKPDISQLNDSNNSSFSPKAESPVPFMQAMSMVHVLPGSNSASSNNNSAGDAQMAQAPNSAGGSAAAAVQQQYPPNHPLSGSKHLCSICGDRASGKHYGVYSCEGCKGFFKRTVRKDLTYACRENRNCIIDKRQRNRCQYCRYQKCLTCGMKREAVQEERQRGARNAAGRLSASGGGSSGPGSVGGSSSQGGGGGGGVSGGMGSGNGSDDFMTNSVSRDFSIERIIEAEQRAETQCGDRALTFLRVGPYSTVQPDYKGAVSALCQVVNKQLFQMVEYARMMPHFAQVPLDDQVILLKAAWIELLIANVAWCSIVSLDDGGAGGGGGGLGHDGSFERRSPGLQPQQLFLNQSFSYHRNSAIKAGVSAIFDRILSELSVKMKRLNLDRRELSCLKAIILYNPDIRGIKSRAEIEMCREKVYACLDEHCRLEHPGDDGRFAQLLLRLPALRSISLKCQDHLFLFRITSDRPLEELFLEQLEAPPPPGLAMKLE
Description: Competitive displacement of 3H-Ponasterone A binding to extract of yeast co-expressing EcR and Usp. The settings on record: unlabelled ligand, FIG. 4, read-out: IC50 for displacing 3H-Ponasterone binding. The method, then:
(§1) Overnight cultures of yeast strains expressing EcR, Usp, EcR+Usp, and EcR+RxR were inoculated into 1 liter of selective medium and incubated for 16 h at 30° C. In strains expressing Usp, cupric sulfate was added to a final concentration of 100 μM and the culture incubated an additional 4 h at 30° C. The cells were harvested by centrifugation and washed twice in cold TEDG buffer (10 mM Tris-HCl, pH 8.0, 0.1 mM EDTA, 2 mM dithiothreitol, 10% glycerol). The cell pellet was then resuspended in TEDG buffer containing 0.4M NaCl, and vortexed with glass beads in ten 30-second bursts. The resulting homogenate is centrifuged at 1000×g for 10 min, after which the supernatant is centrifuged at 100,000×g for 30 min. The final supernatant is collected, diluted to 12.5 mg/ml protein with TEDG buffer, and stored in aliquots at −80° C.
(§2) The following components were added to each reaction mixture:
(§3) (i) 40 μl yeast extract (12.5 mg/ml protein);
(ii) 20 μl ^3H-Ponasterone A (New England Nuclear, 195 Ci/mmol; 20 μl contains 100,000 cpm and a final concentration of 2.5 nM in the reaction mixture);
(iii) 120 μl TEDG buffer containing the following protease inhibitors: PMSF (Sigma Chemical Co.), 0.15 mg/ml; leupeptin (Bachem), 0.04 mg/ml; chymostatin (Bachem), 0.03 mg/ml; and pepstatin (Sigma), 0.01 mg/ml; and
(iv) 20 μl test sample, 25 μM Muristerone A, or control diluent.
The reactions were incubated for 1 h at room temperature or at least 12 h at 4° C. Protein-bound and -free radioactivity were separated by hydroxylapatite chromatography or by filtration, the individual samples suspended in scintillation fluid and the radioactivity determined by scintillation counting.
Specificity of hormone binding to the yeast extract was measured by testing the ability of four known (unlabelled) EcR ligands to displace 3H-Ponasterone binding.
The methods described in Example 2 above were used to test a collection of natural products for EcR binding activity (FIG. 7). The products were tested at 1 and 10 μg/ml. Of 92 compounds tested, one (present in well H8) displaced 62% of ^3H-Ponasterone A binding activity at 10 μg/ml.
A chemical library containing 6592 samples was also screened using the methods described above. Each sample was present at 10 μg/ml. Compounds that displaced at least 75% of the radiolabel were scored as positives. These compounds were then used to generate competitive binding curves as described above.

The conditions of test [3]: cited from earlier work. The source holds these as a separate data set.
Test [4] addresses T1, EcR-Usp complexes. The experiment in a line: Saturation and Scatchard analysis of 3H-Ponasterone A binding to extract of yeast co-expressing EcR and Usp. The settings on record: extract from yeast strain co-expressing EcR and Usp. The procedure: as §1, §2, §3
(ii) 20 μl ^3H-Ponasterone A (New England Nuclear, 195 Ci/mmol; 20 μl contains 100,000 cpm and a final concentration of 2.5 nM in the reaction mixture); […]
The reactions were incubated for 1 h at room temperature or at least 12 h at 4° C. Protein-bound and -free radioactivity were separated by hydroxylapatite chromatography or by filtration, the individual samples suspended in scintillation fluid and the radioactivity determined by scintillation counting. […]

The term IC50 denotes the concentration that gives 50% inhibition. As to `CC(C)(C)N(NC(=O)c1ccccc1)C(=O)c1ccccc1` [RH5849], the “fold less active in binding assays compared with 20-hydroxyecdysone” value in test [1] is given as “at least 30 fold”. In addition, the IC50 in test [2] is 12000 nM. In addition, the “fold less active in bioassays compared with 20-hydroxyecdysone” value in test [3] is “at least 100 fold”.

As for `CC(C)CC[C@@H](O)[C@](C)(O)[C@H]1CC[C@@]2(O)C3=CC(=O)[C@]4(O)C[C@@H](O)[C@@H](O)C[C@]4(C)[C@H]3[C@H](O)C[C@]12C` [muristerone A], the 50% inhibitory concentration (IC50) in test [2] came out at 15 nM.

One may read the Kd as the free concentration of one partner at which half of the binding sites on the other are occupied at equilibrium, for simple one-to-one binding. ^3H-Ponasterone A yielded a Kd in test [4] of 1.8 nM.

20-hydroxyecdysone: in test [2], the IC50 worked out at 500 nM.

With `CC(C)CC[C@@H](O)[C@](C)(O)[C@H]1CC[C@@]2(O)C3=CC(=O)[C@@H]4C[C@@H](O)[C@@H](O)C[C@]4(C)[C@H]3CC[C@]12C` [ponasterone A], the IC50 in test [2] was 2 nM.
